Experimental data from US7230016B2, “Pioglitazone salts, such as pioglitazone sulfate, and pharmaceutical compositions and processes using the same” (priority 2003, dated 2007).
Entries after “also recorded” stand apart in the source; their conditions may differ. Structures can show the parent of a compound that is named as a salt. Where two headings read alike, the source gives them in different places. One block for each molecule: values may come before it.

Tests used:
[1] = Aqueous solubility of pioglitazone salts derived from strong acids or bases; format: physicochemical; conditions: for soluble in H2O: aqueous solubility of the salt, * = the salt is dissolved in water to form a blurred solution
Description: As used herein a pioglitazone salt is considered “water-soluble” if a salt concentration of at least 7 mg/ml can be achieved, even if only momentarily, in distilled water at 25° C. […] The base salts also dissolved in water but they typically formed an unclear solution. The water-soluble salts of pioglitazone are useful as active agents in forming a pioglitazone pharmaceutical composition, especially solid dosage forms, as is described herein after. […] Depending on the salt, the precipitation of a solid begins as quickly as within a few minutes or after several hours. The time of precipitation also depends on nucleation. In particular, once a solid forms, the solution quickly precipitates to form a complete suspension.

[2] = Dissolution experiment comparing pioglitazone salts (Example 2); format: physicochemical; conditions: room temperature; for Dissolution (instant dissolution rate): 0.25 mmol salt added into 10 ml H2O with stirring, ** = salt dissolved partially to form an unclear solution; for later behaviour of the solution (turning into suspension / pioglitazone base) / kind of solution yielded on addition to water: 0.25 mmol salt in 10 ml H2O, stirring; for kind of solution yielded on addition to water: tosylate and 2-napsylate within 1 minute
Description: At room temperature, each pioglitazone salt (0.25 mmol) was added into 10 ml H2O with stirring.

[3] = Stability of pioglitazone sulfate aqueous solution with HPMC as solution stabilizer (Examples 3 and 4); format: physicochemical
Description: Specifically, a solution stabilizer can be effectively added to a pioglitazone sulfate aqueous solution to enhance the stability. As used herein a “solution stabilizer” is an additive that when present in some amount in an aqueous pioglitazone sulfate solution, provides a statistically significant delay in the precipitation of pioglitazone base from the solution in comparison to the same solution held under the same conditions but without the solution stabilizer contained therein. […] Typically the solution stabilizer is a polymer, such as a water-soluble polymer, or a crown-ether. The solution stabilizer may be fully dissolved, partly dissolved and/or swelled, or not dissolved in the aqueous solution, but is preferably dissolved therein. Preferably the solution stabilizer is hydroxypropylmethylcellulose (HPMC), polyvinylpyrrolidone, or cyclodextrin, and most preferably HPMC. The amount of solution stabilizer is generally within the range of 1 to 500 mg/ml of the solution, typically 1 to 200 mg/ml, more typically 10 to 100 mg/ml. A stabilized pioglitazone sulfate solution is thus especially useful as a liquid pharmaceutical formulation and/or for making a liquid pharmaceutical formulation. The following system was tested using HPMC as an additive. […] To a clear solution containing 1.0 g of hydroxypropylmethylcellulose (HPMC) in 25 ml of H2O was added 125 mg of pioglitazone sulfate with stirring.

[4] = Properties of pioglitazone sulfate (solid state, methanol solubility, pH of aqueous solution); format: physicochemical
Description: Of the water-soluble salts, pioglitazone sulfate is the most preferred. As used herein “pioglitazone sulfate” means the salt formed from pioglitazone and sulfuric acid. The salt preferably has approximately a 1:1 molar ratio of pioglitazone moiety to sulfuric acid moiety, especially in solid form. […] Pioglitazone sulfate may be isolated in solid state as a white or almost white crystalline material. It melts at a temperature of about 105 to 115° C., without decomposition. […] Pioglitazone sulfate is thus an especially useful form of pioglitazone for making pharmaceutical formulations, e.g., as an active agent. The pioglitazone sulfate can precipitate from the solution spontaneously, but more likely some step such as cooling, concentrating, adding a seeding crystal, or adding a contrasolvent is advantageously and/or necessarily carried out. As pioglitazone sulfate is soluble in methanol, the addition of a contrasolvent is advantageous for precipitating the solid state salt. […] The size and shape of the formed crystals may be modified by known ways, for instance by precipitation regimen or by using crystallization modifiers. Solid state pioglitazone sulfate is a stable, easily handled solid material, and it may be used as an equivalent to pioglitazone hydrochloride in pharmaceutical compositions for treating pioglitazone-treatable diseases. […] Liquid compositions, particularly aqueous compositions, may include a solution stabilizer as indicated above. The stabilizer preferably comprises a water-soluble polymer, such as hydroxypropylmethylcellulose. The concentration of the polymer in the solution can be within any of the above-described ranges but most preferably is within the range from 0.1 to 10% (w/V) of the total volume. An aqueous solution of pioglitazone sulfate typically has a pH of about 4, which is well suited for both parenteral and peroral compositions.

[5] = cited from earlier work

Structure (SMILES): CCc1ccc(CCOc2ccc(CC3SC(=O)NC3=O)cc2)nc1 (stereo not shown) [Choline salt]
soluble in H2O [1]: yes*

Structure (SMILES): CCc1ccc(CCOc2ccc(CC3SC(=O)NC3=O)cc2)nc1 (stereo not shown) [Hydrochloride, Pioglitazone hydrochloride]
soluble in H2O ([1]; hydrochloride): No
behaviour of methanolic solution poured into water ([1]; no base (neutralizing agent) used): pioglitazone base quickly precipitates
dissolution in water ([1]; hydrochloride): did not dissolve in water
solubility in N,N-dimethylformamide ([5]; N,N-dimethylformamide): dissolves well
solubility in acetone ([5]; acetone): very slightly soluble
solubility in acetonitrile ([5]; acetonitrile): very slightly soluble
solubility in anhydrous ethanol ([5]; anhydrous ethanol): slightly soluble
solubility in dimethyl-sulfoxide ([5]; dimethyl-sulfoxide): dissolves well
solubility in ether ([5]; ether): insoluble
stability of the crystalline material ([5]; room temperature and under moisture): stable
solubility in water ([5]; water, hydrochloride): practically insoluble; also recorded: extremely insoluble

Structure (SMILES): CCc1ccc(CCOc2ccc(CC3SC(=O)NC3=O)cc2)nc1 (stereo not shown) [K salt]
soluble in H2O [1]: yes*

Structure (SMILES): CCc1ccc(CCOc2ccc(CC3SC(=O)NC3=O)cc2)nc1 (stereo not shown) [Na salt]
soluble in H2O [1]: yes*

Structure (SMILES): CCc1ccc(CCOc2ccc(CC3SC(=O)NC3=O)cc2)nc1 (stereo not shown) [2-Napsylate]
soluble in H2O [1]: Slight
Dissolution (instant dissolution rate) [2]: yes/no**
later behaviour of the solution (turning into suspension / pioglitazone base) [2]: quickly turned into a suspension
kind of solution yielded on addition to water [2]: unclear solutions

Structure (SMILES): CCc1ccc(CCOc2ccc(CC3SC(=O)NC3=O)cc2)nc1 (stereo not shown) [Tosylate]
Dissolution (instant dissolution rate) [2]: yes/no**
later behaviour of the solution (turning into suspension / pioglitazone base) [2]: quickly turned into a suspension
kind of solution yielded on addition to water [2]: unclear solutions

Now from value to molecule, other results behind:

soluble in H2O [1]: Yes
dissolution in water ([1]; listed as ethane-di-sulfonate): dissolved instantly in water
Dissolution (instant dissolution rate) ([2]; listed as ethane-disulfonate): Yes
later behaviour of the solution (turning into suspension / pioglitazone base) ([2]; listed as ethane disulfonate): slowly turned into a suspension
kind of solution yielded on addition to water ([2]; listed as ethane disulfonate): clear solutions
Structure (SMILES): CCc1ccc(CCOc2ccc(CC3SC(=O)NC3=O)cc2)nc1 (stereo not shown) [Edisylate]

dissolution in HPMC water solution ([3]; 100 mg in HPMC water solution (2%, 25 ml)): easily dissolved
dissolution in HPMC water solution ([3]; 125 mg added with stirring to 1.0 g HPMC in 25 ml H2O): A clear solution was formed
stability of the HPMC-stabilized solution ([3]; 125 mg in 1.0 g HPMC / 25 ml H2O, stirred at room temperature for more than one month): No obvious solid appeared
soluble in H2O [1]: Yes
dissolution in water [1]: dissolved instantly in water
solubility in water [1]: superior aqueous solubility
Dissolution (instant dissolution rate) [2]: Yes
later behaviour of the solution (turning into suspension / pioglitazone base) [2]: slowly turned into a suspension
kind of solution yielded on addition to water [2]: clear solutions
pH of aqueous solution ([4]; aqueous solution): about 4
solubility in methanol ([4]; methanol): soluble
hygroscopicity of the solid compound ([4]; solid): not hygroscopic
stability of the solid state material ([4]; solid state): stable
Structure (SMILES): CCc1ccc(CCOc2ccc(CC3SC(=O)NC3=O)cc2)nc1 (stereo not shown) [Sulfate, pioglitazone sulfate]
stability of the HPMC-stabilized solution ([3]; 0.4% w/v pioglitazone sulfate in 2% HPMC water solution, room temperature, no obvious precipitation of a solid): stable at room temperature for at least four weeks
stability of the water solution (precipitation of pioglitazone base) ([1]; aqueous solution without stabilizer): can stably remain in an aqueous solution for hours; also recorded: will eventually, after a trace of solid appears, turn into a suspension of pioglitazone base

soluble in H2O [1]: yes*
Structure (SMILES): CCc1ccc(CCOc2ccc(CC3SC(=O)NC3=O)cc2)nc1 (stereo not shown) [Ca salt]

soluble in H2O [1]: No
Structure (SMILES): CCc1ccc(CCOc2ccc(CC3SC(=O)NC3=O)cc2)nc1 (stereo not shown) [Hydrobromide]

soluble in H2O [1]: Yes
dissolution in water [1]: dissolved instantly in water
Structure (SMILES): CCc1ccc(CCOc2ccc(CC3SC(=O)NC3=O)cc2)nc1 (stereo not shown) [Mesylate]

solubility in water [1]: so low
Structure (SMILES): CCc1ccc(CCOc2ccc(CC3SC(=O)NC3=O)cc2)nc1 (stereo not shown) [pioglitazone base, 5-[[4-[2-(5-ethyl-2-pyridinyl)-ethoxy]phenyl]methyl]-2,4-thiazolidinedione, reference compound]
